Test results published in article PMC4974772, “In vitro anti-Leishmania activity of tetracyclic iridoids from Morinda lucida, benth” (Tropical Medicine and Health, 2016).
Values joined by “and” are separate entries in the source; they are usually repeats but may differ in a detail not shown here. Equal values may be shown once. Read-outs that look alike come from different tables or passages of the source.

What was measured:
[1] = tested on: Leishmania hertigi promastigotes; assay: In vitro viacount assay (Guava viacount, FACS) on L. hertigi promastigotes; assay type: cell-based
Description: (§1) The field strain of L. enriettii (010) promastigotes, which had been isolated in Ghana, and the lab strain, Leishmania hertigi promastigotes, were used in this study because of their availability. Parasites were cultured in vitro according to conditions established previously. Log phase of parasites (1 × 10^6 parasites/ml) was diluted to a parasitemia of 3 × 10^5 parasites/ml with M199 medium and used for the drug assay. Estimation of parasitemia was done with the Neubauer’s counting chamber.
Leishmania promastigote forms of L. hertigi parasites were seeded and incubated in the presence or absence of (50–0.78 μM) compounds (dissolved in DMSO) for 48 h, after which the Guava reagent for viacount (Millipore) was added to the culture in the ratio of 1:1 and incubated for 30 min. Analysis was performed using the Millipore guava easyCyte 5HT (USA) according to the manufacture’s instruction.
(§2) The aim of the study was to investigate the anti-Leishmania properties of the three novel tetracyclic iridoid compounds previously found to have anti-trypanosome activity. In the determination of the effect of Molucidin, ML-2-3, and ML-F52 on L. hertigi and 010, parasites were challenged with 0–50 μM of each compound for 48 and 96 h to determine MIC and the concentration of compounds that inhibited parasite growth by 50 % (IC50) by microscopy and fluorescence-activated cell sorting (FACS) analysis, respectively. […] All three compounds share same side chains, iridoid tetracyclic skeleton, but differ in their functional group region. Molucidin and ML-F52 are esters while ML-2-3 is carboxylic acid. The functional groups may play a key role in the activity of the compounds against Leishmania.

[2] = tested on: Leishmania 010 (field strain of L. enriettii) promastigotes; assay: MIC by microscopy on Leishmania field strain 010 promastigotes; assay type: cell-based, L. enriettii (010)
Description: as §1
Promastigotes of Leishmania 010 were seeded and incubated in the presence or absence of (50–0.78 μM) compounds for 96 h and the minimum inhibitory concentration (MIC) of the compounds determined by microscopy.
as §2, with “Molucidin and ML-F52 are esters while ML-2-3 is carboxylic acid. The functional groups may play a key role in the activity of the compounds against Leishmania.” left out

[3] = tested on: NBIRGB (normal skin fibroblasts); assay: Cytotoxicity on normal skin fibroblasts NBIRGB; assay type: cell-based; conditions: 48 h
Description: (§3) Table 2 Selective index of compounds tested for anti-Leishmania activity | column: IC50 (μM), 48 h / ML-2-2; IC50 (μM), 48 h / ML-2-3; IC50 (μM), 48 h / ML-F52; SI / ML-2-2; SI / ML-2-3; SI / ML-F52

[4] = tested on: HF-19 (normal lung fibroblasts); assay: Cytotoxicity on normal lung fibroblasts HF-19; assay type: cell-based; conditions: 48 h
Description: as §3

Hs-888Lu (normal lung) = assay: Cytotoxicity on normal lung Hs-888Lu; assay type: cell-based; conditions: 48 h
Description: as §3

[5] = tested on: Chang Liver (normal liver); assay: Cytotoxicity on normal liver Chang Liver; assay type: cell-based; conditions: 48 h
Description: as §3

L. hertigi parasites = assay: Fluor-microscopy analysis using DAPI (nucleus/kinetoplast count, morphology); assay type: cell-based, Leishmania hertigi; conditions: 4 μM, 48 h, DAPI staining
Description: Parasites were incubated for 24 h under appropriate conditions (25 °C) with appropriate concentrations of active compounds, Molucidin and ML-F52. Parasites were then harvested and fixed with 4 % paraformaldehyde at room temperature for 5 min. Washing steps were carried out with PBS and PBST (0.1 % Triton X 100 in PBS) at room temperature for 5 min and 15 min, respectively. The parasites were stained with 4’,6-diamidino-2’-phenylindole dihydrochloride (DAPI) (5 μg/ml DAPI in PBS) for 10 min. After washing steps as above, the slides were mounted using parmafluor mounting reagent and covered with cover slips. The slides were observed under the Olympus fluorescent microscope (Olympus BX53) to detect any phenotypic changes in L. hertigi parasites.
To investigate the effect of Molucidin and ML-F52 on the morphology and cell division of L. hertigi, we performed fluor-microscope observation with DAPI staining after incubation of parasite with 4 μM of Molucidin and ML-F52 for 48 h. […] The inhibition of cytokinesis might imply the inability of cells to replicate in the mammalian host and increase the parasite burden. This may prevent the parasites from over running the host-immune and may give the host the edge to clear the infection. […]

IC50 ([1]; promastigotes, 48 h, 50–0.78 μM, Guava viacount FACS, read-out: IC50 after 48 h (L. hertigi)) [µM]	MIC after 96 h (010) ([2]; promastigotes, 50–0.78 μM, microscopy)	IC50 ([1]; Leishmania hertigi, positive control, strain not stated in footnote, read-out: IC50 of amphotericin B (positive control)) [µg/mL]	Structure (SMILES)	anti-Leishmania activity ([1]; L. hertigi, 0–50 μM, 48 h)	anti-Leishmania activity ([2]; 010 field strain, 0–50 μM, 96 h)	IC50 [3] [µM]	IC50 [4] [µM]	IC50 (Hs-888Lu (normal lung)) [µM]	IC50 [5] [µM]	effect on parasite morphology (L. hertigi parasites)	2N/2K cells (two sets of nucleus and kinetoplast) (L. hertigi parasites; microscopic counting, DMSO-treated cells 10 % 2N/2K)
4.24	4.167 µM and 4.17 µM		COC(=O)C1=CO[C@@H]2O[C@H]3/C(=C\c4ccc(O)c(OC)c4)C(=O)O[C@]34C=C[C@H]1[C@H]24 [Molucidin]	had anti-Leishmania activity	had anti-Leishmania activity	7.11	14.2	9.29	9.34	induced short stumpy form parasite cells	30–40%
		0.1	C[C@@H]1[C@H](O)[C@@H](C)/C=C/C=C/C=C/C=C/C=C/C=C/C=C/[C@H](O[C@@H]2O[C@H](C)[C@@H](O)[C@H](N)[C@@H]2O)C[C@@H]2O[C@](O)(C[C@@H](O)C[C@@H](O)[C@H](O)CC[C@@H](O)C[C@@H](O)CC(=O)O[C@H]1C)C[C@H](O)[C@H]2C(=O)O [amphotericin B, reference compound]								
